Experimental data reported in ChEMBL document CHEMBL5042512 (Eur J Med Chem, 2022).
Active and inactive are the calls of the source. The calls are words filed in the database; no cut-off is given here.

Experiments:
[1] = tested on: KYSE-30; experiment: Up regulation of p-Histone H3 protein expression in human KYSE-30 cells at 80 to 100 nM for 48 hrs by western blot analysis; format: functional, cell-based; conditions: dose 80-100 nM
[2] = tested on: KYSE-30; experiment: Induction of mitochondrial membrane potential loss in human KYSE-30 cells assessed as decrease in XIAP level at 80 to 100 nM measured after 48 hrs by western blot analysis; format: functional, cell-based; conditions: dose 80-100 nM
[3] = tested on: HCT-116; experiment: Antiproliferative activity against human HCT-116 cells assessed as cell growth inhibition measured after 48 hrs by CCK8 assay; format: functional, cell-based; conditions: HCT-116, 48 h
[4] = tested on: KYSE-30; experiment: Induction of apoptosis in human KYSE-30 cells assessed as apoptotic cells at 100 nM measured after 48 hrs by annexin-V-FITC and PI staining based flow cytometry analysis (reference value: 8.1667 %); format: functional
[5] = tested on: KYSE-450; experiment: Induction of mitochondrial membrane potential loss in human KYSE-450 cells assessed as Bcl-xL expression at 80 to 100 nM measured after 48 hrs by western blot analysis; format: functional, cell-based; conditions: dose 80-100 nM
[6] = tested on: KYSE-450; experiment: Antiproliferative activity against human KYSE-450 cells assessed as cell viability measured up to 48 hrs by CCK8 assay; format: functional, cell-based; conditions: time hrs <=48, TDE = time-dependent effect
[7] = tested on: KYSE-450; experiment: Antiproliferative activity against human KYSE-450 cells assessed as cell viability measured after 48 hrs by CCK8 assay; format: functional, cell-based; conditions: KYSE-450, 48 h
[8] = biological target: T1, Tubulin (Homo sapiens) (UniProt P68371+Q9H4B7+P0DPH7+P68366+Q13509+Q71U36+P04350+Q3ZCM7+P07437+P68363+Q9BQE3+Q6PEY2+Q13885+Q9BVA1+Q9BUF5); experiment: Inhibition of tubulin polymerization in human KYSE-450 cells assessed as weakening of beta tubulin at 100 to 300 nM for 2 hrs by EBI alkylate competition assay; format: cell-based; conditions: dose 100-300 nM
[9] = tested on: KYSE-450; experiment: Down regulation of p-wee1 protein expression in human KYSE-450 cells at 80 to 100 nM for 48 hrs by western blot analysis; format: functional, cell-based; conditions: dose 80-100 nM
[10] = tested on: KYSE-30; experiment: Down regulation of p-wee1 protein expression in human KYSE-30 cells at 80 to 100 nM for 48 hrs by western blot analysis; format: functional, cell-based; conditions: dose 80-100 nM
[11] = tested on: KYSE-450; experiment: Induction of cell cycle arrest in human KYSE-450 cells assessed as accumulation at G2/M phase at 100 nM measured after 48 hrs by flow cytometry analysis (reference value: 7.04333 %); format: functional
[12] = tested on: KYSE-30; experiment: Down regulation of CDC25C protein expression in human KYSE-30 cells at 80 to 100 nM for 48 hrs by western blot analysis; format: functional, cell-based; conditions: dose 80-100 nM
[13] = tested on: KYSE-30; experiment: Induction of apoptosis in human KYSE-30 cells assessed as apoptotic cells at 80 nM measured after 48 hrs by annexin-V-FITC and PI staining based flow cytometry analysis (reference value: 8.1667 %); format: functional
[14] = tested on: MGC-803; experiment: Antiproliferative activity against human MGC-803 cells assessed as cell growth inhibition measured after 48 hrs by CCK8 assay; format: functional, cell-based; conditions: MGC-803, 48 h
[15] = tested on: KYSE-450; experiment: Induction of mitochondrial membrane potential loss in human KYSE-450 cells assessed as mitochondrial depolarization at 80 to 100 nM measured after 48 hrs by JCI staining based flow cytometry; format: functional, cell-based; conditions: dose 80-100 nM
[16] = tested on: KYSE-30; experiment: Induction of mitochondrial membrane potential loss in human KYSE-30 cells assessed as Bcl-xL expression at 80 to 100 nM measured after 48 hrs by western blot analysis; format: functional, cell-based; conditions: dose 80-100 nM
[17] = biological target: T1, Tubulin (Homo sapiens); experiment: Inhibition of tubulin polymerization in human KYSE-30 cells assessed as weakening of beta tubulin at 100 to 300 nM for 2 hrs by EBI alkylate competition assay; format: cell-based; conditions: dose 100-300 nM
[18] = tested on: KYSE-30; experiment: Antiproliferative activity against human KYSE-30 cells assessed as inhibition of colony formation at 40 to 60 nM for 7 days by crystal violet staining based analysis; format: functional, cell-based; conditions: dose 40-60 nM, time 7.0 day
[19] = tested on: KYSE-450; experiment: Induction of mitochondrial membrane potential loss in human KYSE-450 cells assessed as upregulation of NOXA protein at 80 to 100 nM measured after 48 hrs by western blot analysis; format: functional, cell-based; conditions: dose 80-100 nM
[20] = tested on: KYSE-30; experiment: Induction of mitochondrial membrane potential loss in human KYSE-30 cells assessed as upregulation of Bax protein at 80 to 100 nM measured after 48 hrs by western blot analysis; format: functional, cell-based; conditions: dose 80-100 nM
[21] = tested on: KYSE-30; experiment: Antiproliferative activity against human KYSE-30 cells assessed as cell viability measured up to 48 hrs by CCK8 assay; format: functional, cell-based; conditions: time hrs <=48, TDE = time-dependent effect
[22] = tested on: KYSE-450; experiment: Antiproliferative activity against human KYSE-450 cells assessed as inhibition of colony formation at 40 to 60 nM for 7 days by crystal violet staining based analysis; format: functional, cell-based; conditions: dose 40-60 nM, time 7.0 day
[23] = tested on: KYSE-30; experiment: Induction of mitochondrial membrane potential loss in human KYSE-30 cells assessed as Bak expression at 80 to 100 nM measured after 48 hrs by western blot analysis; format: functional, cell-based; conditions: dose 80-100 nM
[24] = tested on: KYSE-450; experiment: Down regulation of CDK1 protein expression in human KYSE-450 cells at 80 to 100 nM for 48 hrs by western blot analysis; format: functional, cell-based; conditions: dose 80-100 nM
[25] = tested on: KYSE-30; experiment: Induction of cell cycle arrest in human KYSE-30 cells assessed as accumulation at G2/M phase at 100 nM measured after 48 hrs by flow cytometry analysis (reference value: 19.38 %); format: functional
[26] = tested on: KYSE-450; experiment: Induction of mitochondrial membrane potential loss in human KYSE-450 cells assessed as Mcl-1 expression at 80 to 100 nM measured after 48 hrs by western blot analysis; format: functional, cell-based; conditions: dose 80-100 nM
[27] = tested on: KYSE-30; experiment: Induction of apoptosis in human KYSE-30 cells assessed as PARP cleavage at 80 to 100 nM measured after 48 hrs by western blot analysis; format: functional, cell-based; conditions: dose 80-100 nM
[28] = tested on: KYSE-450; experiment: Induction of apoptosis in human KYSE-450 cells assessed as PARP cleavage at 80 to 100 nM measured after 48 hrs by western blot analysis; format: functional, cell-based; conditions: dose 80-100 nM
[29] = tested on: KYSE-30; experiment: Induction of apoptosis in human KYSE-30 cells assessed as caspase-3 cleavage at 80 to 100 nM measured after 48 hrs by western blot analysis; format: functional, cell-based; conditions: dose 80-100 nM
[30] = biological target: T1, Tubulin (Homo sapiens); experiment: Inhibition of tubulin polymerization in human KYSE-30 cells assessed as microtubule assembly at 0.1 uM measured after 48 hrs by immunofluorescence assay; format: cell-based
[31] = tested on: KYSE-30; experiment: Induction of mitochondrial membrane potential loss in human KYSE-30 cells assessed as Mcl-1 expression at 80 to 100 nM measured after 48 hrs by western blot analysis; format: functional, cell-based; conditions: dose 80-100 nM
[32] = tested on: KYSE-450; experiment: Up regulation of p-Histone H3 protein expression in human KYSE-450 cells at 80 to 100 nM for 48 hrs by western blot analysis; format: functional, cell-based; conditions: dose 80-100 nM
[33] = tested on: KYSE-450; experiment: Down regulation of CDC25C protein expression in human KYSE-450 cells at 80 to 100 nM for 48 hrs by western blot analysis; format: functional, cell-based; conditions: dose 80-100 nM
[34] = tested on: KYSE-30; experiment: Induction of mitochondrial membrane potential loss in human KYSE-30 cells assessed as upregulation of NOXA protein at 80 to 100 nM measured after 48 hrs by western blot analysis; format: functional, cell-based; conditions: dose 80-100 nM
[35] = tested on: KYSE-30; experiment: Induction of mitochondrial membrane potential loss in human KYSE-30 cells assessed as mitochondrial depolarization at 80 to 100 nM measured after 48 hrs by JCI staining based flow cytometry; format: functional, cell-based; conditions: dose 80-100 nM
[36] = tested on: KYSE-450; experiment: Induction of apoptosis in human KYSE-450 cells assessed as caspase-3 cleavage at 80 to 100 nM measured after 48 hrs by western blot analysis; format: functional, cell-based; conditions: dose 80-100 nM

COc1ccc(CN(C(=O)CSC(=S)N2CCN(C(=O)OC(C)(C)C)CC2)c2cc(OC)c(OC)c(OC)c2)cc1O
Activity [1]: Dose-Dependent Effect
Activity [2]: Dose-Dependent Effect
IC50 [3]: 0.128 µM
Activity [4]: 38.633%
Activity [5]: inactive
inhibition [6]: Tde
IC50 [7]: 0.076 µM
inhibition [8]: Active
Activity [9]: Dose-Dependent Effect
Activity [10]: Dose-Dependent Effect
Activity [11]: 80.8933%
Activity [12]: Dose-Dependent Effect
Activity [13]: 23.8%
IC50 [14]: 0.082 µM
Activity [15]: Active
Activity [16]: inactive
inhibition [17]: Active
inhibition [18]: Active
Activity [19]: Dose-Dependent Effect
Activity [20]: Dose-Dependent Effect
inhibition [21]: Tde
inhibition [22]: Active
Activity [23]: inactive
Activity [24]: Dose-Dependent Effect
Activity [25]: 76.9767%
Activity [26]: inactive
Activity [27]: Active
Activity [28]: Active
Activity [29]: Active
inhibition [30]: Active
Activity [31]: inactive
Activity [32]: Dose-Dependent Effect
Activity [33]: Dose-Dependent Effect
Activity [34]: Dose-Dependent Effect
Activity [35]: Active
Activity [36]: Active
